Measurements taken from patent publication US6406917B1, “Methods and compositions for the use of apurinic/apyrimidinic endonucleases” (Advanced Research And Technology Institute, priority 1996, dated 2002).

Experiments:
Format in all cases: cell-based, human
[1] = system: HL-60 cells; assay: Northern blot of APE transcript after differentiation induction
Method: (§1) FIG. 6A and FIG. 6B: Expression of APE in HL-60 cells. FIG. 6A, HL-60 cells at 0, 2, 4, and 6 days after treatment with 10^−5 M RA or 1.25% DMSO, Western blot (top) probed with an affinity purified polyclonal rabbit anti-APE antibody which detects the 37,000 Daltons human APE. Northern blots (middle and bottom) probed for the 1.6 Kb APE mRNA and GAPDH transcripts. FIG. 6B, HL-60 cells treated with 100 nM PMA.
To investigate possible changes in expression of the DNA repair enzyme APE in differenntiating myeloid cells, the inventor utilized Northern and Western blot analysis with the HL-60 myeloid leukemia cell line, which can be induced to terminally differentiate into mature granulocytes or monocyte/macrophage (Collins, 1987). […] To determine whether the decrease in APE expression was confined to granulocytic differentiation, HL-60 cells were induced down the monocyte/macrophage pathway with PMA.

[2] = system: HL-60-bcl-2 cells; assay: Western blot of APE protein expression after differentiation induction; conditions: 10^-5 M RA, 1.25% DMSO or 100 nM PMA, compared to parental HL-60
Method: (§2) FIG. 7A and FIG. 7B: Expression of APE in HL-60-bcl-2 cells. FIG. 7A, HL-60-bcl-2 cells at 0, 2, 4, and 6 days after treatment with 10^−5 M RA or 1.25% DMSO, Western blot (top) probed with an affinity purified polyclonal rabbit anti-APE antibody. Northern blots (middle and bottom) probed for the 1.6 Kb APE and GAPDH transcripts. FIG. 7B, HL-60-bcl-2 cells treated with 100 nM PMA.
(§3) To ascertain whether APE expression was associated with differentiation or programmed cell death, the inventor blocked apoptosis by over-expression of the proto-oncogene bcl-2 using HL-60 cells transduced with the retroviral construct LbcI2SN (Park et al, 1994). […] The apparent decrease in APE transcript expression after 6 days exposure to RA or DMSO results from loading differences as evidenced by the GAPDH Northern control blot (FIG. 7). […] Thus constitutive expression of bcl-2 inhibits the decrease in APE expression as well as programmed cell death normally observed with granulocytic or monocytic/macrophage induced differentiation of HL-60 cells.

[3] = system: HL-60 cells; assay: APE expression on cytospun cells, rhodamine-labeled anti-APE staining; conditions: for % rhodamine positive (APE): HL-60 + DMSO
Method: (§4) To determine if the cells undergoing apoptosis were also the cells downregulating APE, double labeling experiments were performed on a 50:50 mix of untreated and RA treated (6 days, 10^−5 M) HL-60 cells (FIG. 9A). Cytocentrifuge preparations were stained for 1) fragmented DNA using fluorescein-dUTP in the TUNEL assay (FIG. 9C) and 2) APE using polyclonal rabbit anti-APE with a rhodamine labeled goat anti-rabbit secondary antibody (FIG. 9B). Cells undergoing apoptosis fluoresce ‘green’ and cells expressing APE fluoresce ‘red’. […] Conversely, TUNEL negative cells, not undergoing apoptosis, stained strongly positive for APE. Thus, HL-60 cells undergoing apoptosis appear to lose expression of APE.
(§5) The inventor further characterized the temporal decline in APE expression to see if it was an early event in programmed cell death or if the decline coincided with fragmentation of DNA (TUNEL assay); the inventor assayed APE expression and DNA fragmentation on cytospun preparations of cells after exposure to DMSO. The expression of APE started to fall with fewer rhodamine positive cells after 2 days of DMSO while statistically significant evidence of fragmented DNA was not apparent until after 4-6 days (Table 7, FIG. 8). A similar pattern was observed, but not as rapid a loss of APE expression, after exposure to RA or PMA. Thus the decrease in APE expression associated with programmed cell death appears to be an early event occurring before the final pathologic consequences of DNA fragmentation in apoptosis.

[4] = system: HL-60 cells; assay: Western blot of APE protein expression after differentiation induction
Method: as §1
Western blot analysis was performed as has been previously described (Wilson et al., 1994; 1995, FIG. 16). Whole cell extracts were electrophoresed on a 12% SDS-PAGE and electroblotted onto 0.2 micron nitrocellulose. The filter was incubated in blocking buffer which contains 5% non-fat milk for 1 hour. Next, the antibody (affinity purified APE) was diluted to the appropriate concentration (1:100) and incubated with the filter overnight at 4° C. The filter was washed in 1×TBST and incubated in TBST containing 5% milk and cross-reacting proteins were detected using the Chemiluminescence Western Blotting Kit from Boehringer-Mannheim (Indianapolis, Ind.) as directed. Western blot analysis of HeLa cell (human) or NIH3T3 (mouse) cells using antibody produced in rabbits or chickens are shown in FIG. 16. The antibodies were affinity purified and only a single cross-reacting protein is visible in the human or mouse cells. […]

[5] = system: HL-60-bcl-2 cells; assay: Northern blot of APE mRNA after differentiation induction; conditions: 10^-5 M RA, 1.25% DMSO or 100 nM PMA
Method: as §2, §3

[6] = system: HL-60 cells; assay: DNA fragmentation / apoptosis, fluorescein TUNEL assay; conditions: for % fluorescein positive (TUNEL): HL-60 + DMSO
Excerpt: Over-expression of bcl-2 depresses the baseline apoptosis to less than 1% (FIG. 8). […] The high level expression of bcl-2 in HL-60-bcl-2 cells appears to be responsible for not only the block in apoptosis (Park et al., 1994), but also the failure to downregulate expression of APE with induction of differentiation. […] This leads to the conclusion that the decrease in expression of APE observed on Northern and Western blot (FIG. 6) in induced HL-60 cells is associated with programmed cell death.
as §4, §5

[7] = system: HL-60 cells; assay: RA-induced differentiation (morphology, CD11b, NBT reduction)
[8] = system: HL-60-bcl-2 cells; assay: as above
[9] = system: HL-60-bcl-2 cells; assay: Viability of RA-induced granulocytes (trypan blue dye exclusion); conditions: HL-60+Lbcl2SN cells treated with RA, compared to parental HL-60 cells
Method: FIG. 10A and FIG. 10B: Enhanced viability of HL-60-bcl-2 granulocytes. HL60 and HL-60-bcl-2 cells were induced with RA (1 μmol/L) which was added at day 0. At the indicated days after RA treatment (FIG. 10A), cell number was determined using a hemocytometer chamber and (FIG. 10B) percentage of cell viability was determined by trypan blue dye exclusion. The indicated points represent the mean of triplicate experiments (▴) HL-60 wt; (◯) HL-60 Bcl2.
To determine whether cell differentiation and apoptosis were closely linked processes that could not be separated, the inventor over expressed the proto-oncogene bcl-2 in HL-60 cells to block apoptosis the 1.9 kB cDNA of bcl-2 was subcloned into the retroviral vector LXSN to produce Lbcl2SN. The ecotropic packaging cell line PE501 was transfected and used to transduce the amphotropic packaging cell line PA317. High titer clones of PA317+Lbcl2SN were selected for transduction of HL-60 cells to produce HL-60+Lbcl2SN. Several clones were screened by Northern blot analysis and one clone with high bcl-2 expression was chosen for study. […] These cells were assayed for programmed cell death using the TUNEL reaction to score individual cells and the diphenylamine assay to determine the total amount of DNA undergoing fragmentation. […] Thus myeloid cell differentiation and apoptosis are independent processes that can be separated.

[10] = after 1 hour of TPA stimulation
[11] = arbitrary log scale 0 to 200, 18.5 U = doubling

Compound	APE transcript expression (Northern blot) ([1]; granulocytic induction with 10^-5 M RA or 1.25% DMSO, 0-6 days)	APE protein expression (Western blot) [2]	% rhodamine positive (APE) ([3]; 2 days)	% rhodamine positive (APE) ([3]; 4 days)	time after which expression of APE started to fall (fewer rhodamine positive cells) ([3]; HL-60, DMSO)	APE protein expression (Western blot) ([4]; 10^-5 M RA or 1.25% DMSO, over 6 days, compared to ethanol treated controls)	APE mRNA expression (Northern blot) [5]	% fluorescein positive (TUNEL) ([6]; 2 days)	% fluorescein positive (TUNEL) ([6]; 4 days)	% fluorescein positive (TUNEL) ([6]; 6 days)	time after which statistically significant evidence of fragmented DNA became apparent ([6]; HL-60, DMSO)	APE transcript expression (Northern blot) ([1]; 100 nM PMA)	APE protein expression (Western blot) ([4]; 100 nM PMA, after two days exposure)	NBT (+), percentage of cells containing blue-black formazan deposits [7, 10]	CD11b (+), relative mean fluorescence [7, 11]	NBT (+), percentage of cells containing blue-black formazan deposits [8, 10]	CD11b (+), relative mean fluorescence [8, 11]	survival of mature granulocytes [9]
C[S+](C)[O-] [DMSO]	more rapid decrease to a lower level	continuous expression	34%	0%	2 days	nearly undectable	similarly maintained	2.7%	2.3%	7%	4 to 6 days	–	–	–	–	–	–	–
CCCCCCCCCCCCCC(=O)O[C@@H]1[C@@H](C)[C@@]2(O)[C@@H](C=C(CO)C[C@]3(O)C(=O)C(C)=C[C@@H]23)[C@@H]2C(C)(C)[C@]12OC(C)=O [PMA]	–	continuous expression	–	–	–	–	continuous expression	–	–	–	–	Decreased expression	decreased to a very low level	–	–	–	–	–
CC1=C(/C=C/C(C)=C/C=C/C(C)=C/C(=O)O)C(C)(C)CCC1 [RA, Retinoic Acid]	–	–	–	–	–	–	–	–	–	–	–	–	–	>90%	105.4 U	>90%	107.9 U	up to 40 days
